The test system of series [1] is non-CF epithelia. The experiment in a line: Liquid absorption by airway epithelia. In kind it is cell-based, human. Conditions: 60 μl saline/xylitol mixtures apical, 4 hours, increasing xylitol concentration. The procedure: (§1) FIG. 2. Effect of apical xylitol on rate of liquid absorption by non-CF and CF epithelia. Sixty μl of saline solution, xylitol solution, or indicated mixtures of the two were applied to the apical surface. Four hours later the solution was removed to measure rate of liquid absorption. A short incubation period was chosen to avoid secondary changes in the epithelium due to the large volume of apical liquid. Data are mean±SEM; n=15 from 3 different experiments. Some SEM bars are hidden by symbols.
(§2) Airway epithelial cells were isolated from tracheal and bronchial tissue. […] All epithelia were evaluated with scanning electron microscopy for the development of a ciliated apical surface.
(§3) Liquid absorption was measured using methods similar to those previously described (Smith, J. J., P. H. Karp, and M. J. Welsh. 1994. Defective fluid transport by cystic fibrosis airway epithelia. J. Clin. Invest. 93:1307-1311). […] After incubation for 4 hours, apical solutions were collected under mineral oil and their volume measured as previously described (Zabner, J., J. J. Smith, P. H. Karp, J. H. Widdicombe, and M. J. Welsh. 1998. Loss of CFTR chloride channels alters salt absorption by cystic fibrosis airway epithelia in vitro. Mol. Cell. 2:397-403; Smith, J. J., P. H. Karp, and M. J. Welsh. 1994. Defective fluid transport by cystic fibrosis airway epithelia. J. Clin. Invest. 93:1307-1311). […]

For a further series, the system named is CF epithelia. Description: Liquid absorption by airway epithelia. In kind it is cell-based, human. To be noted: 60 μl saline/xylitol mixtures apical, 4 hours, increasing xylitol concentration. Here is the method: as §1, §2, §3
The test system of series [2] is non-CF epithelia. The experiment in a line: ASL Cl- concentration and volume (isotope method). In kind it is cell-based, human. The procedure:
FIGS. 3(A-B). The effect of apical xylitol on non-CF and CF ASL Cl^− concentration and volume. Five μl of isosmotic xylitol or saline solution were applied to the apical surface. Twenty-four hours later, ASL Cl^− concentration (A) and volume (B) were determined. Asterisk indicates a difference between the saline and the xylitol solutions, p<0.05. N=15 to 18 from 3 CF and 3 non-CF specimens.
as §2
The ASL Cl^− concentration was measured as previously described (Zabner, J., J. J. Smith, P. H. Karp, J. H. Widdicombe, and M. J. Welsh. 1998. Loss of CFTR chloride channels alters salt absorption by cystic fibrosis airway epithelia in vitro. Mol. Cell. 2:397-403). […] The ratio of ^36Cl to ^3H2O was determined by liquid scintillation. […] From these measurements, it was determined the ^3H2O activity per μl of water and the cpm of ^36Cl per mole of Cl^− in the basolateral medium. ASL volume was calculated from the ASL ^3H2O collected divided by the ratio of ^3H2O activity per μl of basolateral medium. Chloride content was calculated from the ASL ^36Cl collected divided by the ratio of ^36Cl per mole of Cl^− in the basolateral medium ASL Cl^− concentration was calculated from the Cl^− content divided by the volume of ASL. […]

The test system of series [3] is coagulase-negative Staphylococcus.
From the text: Effect of xylitol administration to nasal mucosa on coagulase-negative Staphylococcus.
Subjects were over 18 years old. […] Twenty-one normal healthy subjects (10 male and 11 female, age 20 to 52 years) participated.
The design was a double-blind, randomized, cross-over study. Subjects were randomized to one of two groups: xylitol followed by saline or saline followed by xylitol. A culture of both anterior nares was obtained on day zero. Then subjects sprayed each nostril with a prefilled syringe of solution 4 times per day for 4 days. On the morning of day 5, subjects did their final application at breakfast time, then a nasal swab was obtained 2 hours later. No treatment was administered for the next 7 days. Subjects then repeated the protocol with the opposite solution. The saline solution was 0.9% NaCl in water (Baxter Health Care Corp., Deerfield, Ill.). The xylitol solution was 5% xylitol (304 mM) in water. The solutions were nebulized using an Accuspray syringe (Becton Dickinson Pharmaceutical Systems, Franklin Lakes, N.J.), containing 250 μl of solution. The xylitol and saline syringes were identical. The mass medium diameter of particles was ˜60 μm. It was impossible to disguise the sweet taste of xylitol.
Samples for cultures were obtained with sterile rayon swabs (Culturette Collection and Transport System, Becton Dickinson Microbiology Systems, Sparks, Md.). […] The plates were incubated at 37° C. for 24 hours and the colonies of coagulase-negative Staphylococcus colonies were identified and counted using a Cling-On Grid (Spiral Biotech, Bethesda, Md.). […]
A randomized, double-blind, cross-over study was performed. The nasal mucosa was swabbed and the number of coagulase-negative Staphylococcus was determined by culture. […] After 4 days, the number of nasal coagulase-negative Staphylococcus was counted again. […]
Analysis of variance for a cross-over design was applied on the change in bacterial count from pretreatment to post treatment. […] Thus, the comparison of xylitol vs. saline was evaluated from the data of both nostrils and both sequences.

Turning to `OC[C@@H](O)[C@H](O)[C@@H](O)CO` [xylitol], the “rate of liquid absorption” value in the series on non-CF epithelia [1] and in the series on CF epithelia was “reduced the rate of liquid absorption” throughout. Moreover, in the series on non-CF epithelia [2] (24 hours after 5 μl apical), the “estimated ASL volume” value is “increased”. Besides, the “ASL Cl- concentration” value in the series on non-CF epithelia [2] (24 hours after 5 μl isosmotic xylitol solution apical) amounted to 34.2 ± 4.3 mM. In addition, in series [3] (in vivo), the “adverse effects reported by subjects” value is “none of the subjects tested reported adverse effects”. For the same compound, in series [3] (normal subjects, nasal spray 4 times a day for 4 days, interquartile range in brackets), the “median change in coagulase-negative Staphylococcus count” value was 500 (interquartile range of 1152 to 120) cfu. Also, the “average reduction of coagulase-negative Staphylococcus in treated nostrils” value in series [3] (normal subjects, nasal spray 250 μl per nostril 4 times a day for 4 days, p=0.05 vs saline) is recorded as 597±242 cfu.

(Values after patent publication US6716819B2, “Use of xylitol to reduce ionic strength and activate endogenous antimicrobials for prevention and treatment of infections” (University of Iowa Research Foundation, priority 2000, dated 2004).)
